Like-named read-outs stand apart in the source and are kept apart here.
How the values were obtained:
[1] = molecular target: histone deacetylase; conditions: Figure 1; read-out: IC50 (known histone deacetylase inhibitors); cited from earlier work
[2] = test system: human colon cancer (HCT116) cells; experiment: MTT assay, HCT116 cells; format: cell-based; conditions: Homo sapiens, HCT-116, read-out: IC50 Values (Mean ± SD; n = 3)
Experimental: (§1) The MTT reduction assay was performed with non-cancer (Vero), human cervical cancer (HeLa), human colon cancer (HCT116), human breast adenocarcinoma cancer (MCF-7), and cholangiocarcinoma (H-69 […], KKU-100 and KKU-M213B) cell lines according to the previously described method. Briefly, cells were seeded in 96-well plates. The next day, cells were exposed to the selected compounds at various concentrations and incubated for 24, 48 and 72 h. After incubation, the culture medium was exchanged with 110 µL of MTT (0.5 mg/mL in PBS medium) and further incubated for 2 h. The amount of MTT formazan product was determined after dissolving in DMSO by measuring its absorbance with a microplate reader (Bio-Rad Laboratories, Hercules, CA, USA) at a test wavelength of 550 nm and a reference wavelength of 655 nm. The cell viability was expressed as a percentage of the viable cells of control culture conditions, and the IC50 values of each group were calculated.

[3] = test system: cholangiocarcinoma KKU-100 cells; experiment: MTT assay, KKU-100 cells; format: cell-based, human; conditions: Homo sapiens, KKU100, read-out: IC50 Values (Mean ± SD; n = 3)
Experimental: as §1

[4] = test system: Vero cells; experiment: MTT assay, non-cancer Vero cells; format: cell-based; conditions: Chlorocebus sabaeus, read-out: IC50 Values (Mean ± SD; n = 3)
Experimental: as §1

[5] = test system: HDAC enzymes (HeLa nuclear extract, mixed-HDAC isoforms); experiment: Fluor-de-Lys HDAC activity assay kit, HeLa nuclear extract as source of HDAC enzymes; format: biochemical, human; conditions: compounds at 100 µM
Experimental: The in vitro HDAC inhibitions of the obtained compounds were carried out with the assay kit containing mixed-HDAC isoforms. […] Therefore, the results were not fully related. However, compounds with good binding affinities should have the potential to be specific HDAC inhibitors for each isoform.
The semi-synthetic derivatives were evaluated for their ability to inhibit HDAC enzymes. Inhibition of HDAC activity in vitro was assessed using the Fluor-de-Lys HDAC activity assay kit (Biomol, Enzo Life Sciences International, Inc., Farmingdale, NY, USA). The HeLa nuclear extract provided with the kit was used as a source of HDAC enzymes for the in vitro study. TSA was used as the positive control. The HeLa nuclear extract, substrate, buffer and inhibitors were incubated. Deacetylation of the substrate was performed next by adding a developer to generate a fluorophore. The spectra Max Gemini XPS microplate spectrofluorometer (Molecular Devices, San Jose, CA, USA) was used to measure fluorescence signal with excitation at 360 nm and emission at 460 nm. A decrease in fluorescence signal indicated an inhibition of HDAC activity. Trichostatin A (TSA) was used as a positive control. All experiments were carried out in triplicate.

[6] = test system: H-69 cells; experiment: MTT assay, H-69 cells; format: cell-based; conditions: Homo sapiens, NCI-H69, read-out: IC50 Values (Mean ± SD; n = 3)
Experimental: as §1

[7] = test system: human breast adenocarcinoma cancer (MCF-7) cells; experiment: MTT assay, MCF-7 cells; format: cell-based; conditions: Homo sapiens, MCF7, read-out: IC50 Values (Mean ± SD; n = 3)
Experimental: as §1

[8] = test system: cholangiocarcinoma KKU-M213B cells; experiment: MTT assay, KKU-M213B cells; format: cell-based, human; conditions: Homo sapiens, read-out: IC50 Values (Mean ± SD; n = 3)
Experimental: as §1

[9] = test system: human cervical cancer (HeLa) cells; experiment: MTT assay, HeLa cells; format: cell-based; conditions: for IC50: Homo sapiens, read-out: IC50 Values (Mean ± SD; n = 3), HeLa cells
Experimental: as §1

| IC50 ([2]; 24 h) | IC50 ([2]; 48 h) | IC50 ([2]; 72 h) | %HDAC Inhibition [5] | IC50 ([7]; 24 h) | IC50 ([7]; 48 h) | IC50 ([7]; 72 h) | Compound | IC50 [1] | IC50 ([3]; 24 h) | IC50 ([3]; 48 h) | IC50 ([3]; 72 h) | IC50 ([4]; 24 h) | IC50 ([4]; 48 h) | IC50 ([4]; 72 h) | IC50 ([6]; 24 h) | IC50 ([6]; 48 h) | IC50 ([6]; 72 h) | IC50 ([8]; 24 h) | IC50 ([8]; 48 h) | IC50 ([8]; 72 h) | further results |
| --- | --- | --- | --- | --- | --- | --- | --- | --- | --- | --- | --- | --- | --- | --- | --- | --- | --- | --- | --- | --- | --- |
| – | – | – | – | – | – | – | CCCCC[C@H](O)CC(=O)CCc1ccc(O)c(OC)c1 [[6]-Gingerol (3), [6]-gingerol] | 61 µM | – | – | – | – | – | – | – | – | – | – | – | – | – |
| – | – | – | – | – | – | – | COc1cc(CNC(=O)CCCCC(O)CC(C)C)ccc1O (stereo not drawn) [Hydroxycapsaicin (2), hydroxycapsaicin] | 72 µM | – | – | – | – | – | – | – | – | – | – | – | – | – |
| 40.1 ± 1.47 µM | 28.3 ± 0.79 µM | 26.63 ± 0.15 µM | 80% | 104 ± 3.17 µM | 57.8 ± 2.37 µM | 25.5 ± 1.15 µM | CCCCC/C=C/C(CCc1ccc(O)c(OC)c1)=N\Nc1nc2ccccc2s1 [Compound 4d, 4-((3Z,4E)-3-(2-(Benzo[d]thiazol-2-yl)hydrazono)dec-4-en-1-yl)-2-methoxyphenol] | – | 41.6 ± 1.24 µM | 31.5 ± 0.8 µM | 25.75 ± 0.2 µM | 170 ± 6.98 µM | 70 ± 1.27 µM | 60.1 ± 1.69 µM | 51.4 ± 1.51 µM | 41.4 ± 0.61 µM | 29.4 ± 0.89 µM | 39.84 ± 0.29 µM | 20.6 ± 0.18 µM | 18.2 ± 0.75 µM | IC50 ([9]; 24 h): 51.6 ± 1.92 µM; IC50 ([9]; 48 h): 37.2 ± 1.33 µM; IC50 ([9]; 72 h): 33.7 ± 0.76 µM |
| 17.3 ± 0.57 µM | 12.4 ± 0.15 µM | 12.3 ± 0.13 µM | 86% | 24.8 ± 0.66 µM | 16.54 ± 0.15 µM | 13.39 ± 0.07 µM | CCCCC/C=C/C(=O)CCc1ccc(O)c(OC)c1 [Compound 4, [6]-shogaol] | 50 µM | 27.64 ± 0.26 µM | 18.9 ± 0.48 µM | 17.04 ± 0.04 µM | 37.6 ± 0.94 µM | 36 ± 0.95 µM | 23.3 ± 0.24 µM | 38.4 ± 0.84 µM | 32 ± 0.55 µM | 24.78 ± 0.24 µM | 17.95 ± 0.05 µM | 12.9 ± 0.47 µM | 9.91 ± 0.17 µM | selectivity towards HeLa cells than non-cancer cells ([9]; HeLa versus non-cancer cells): 3 fold; IC50 ([9]; 24 h): 16.9 ± 0.8 µM; IC50 ([9]; 48 h): 9.26 ± 0.46 µM; IC50 ([9]; 72 h): 8.1 ± 0.29 µM |

From article PMC9144829, “Histone Deacetylase Inhibitory Activity and Antiproliferative Potential of New [6]-Shogaol Derivatives” (Molecules, 2022)
